Data on 23 compounds can be found in US20170066717A1, “NEW PHENYLAZETIDINECARBOXYLATE OR -CARBOXAMIDE COMPOUNDS” (INVENTIVA, priority 2014, published 2017).

The target in one assay is T1, NURR-1/RXRγ (Homo sapiens, UniProt P48443).
T1 construct: expressed in transfected cells; host or cells: Cos-7 cells
Nature of the assay: Transactivation test, NURR-1-Gal4/RXRγ, luciferase reporter in Cos-7 cells. Format: cell-based. To be noted: for Emax: COS-7, induction level relative to reference XCT0135908 at 2×10^−5 M (=100%), read-out: hNurr1_RXRgFL Emax (%); for EC50: Cos-7 cells, NURR-1-Gal4/RXRγ, luciferase reporter, read-out: hNurr1_RXRgFL EC50. How it is done:
(§1) The ability of the compounds according to the invention to behave as an activator of the heterodimers formed by the NURR-1 nuclear receptor and the RXR nuclear receptors was measured by means of an in vitro test. A transactivation test was used as primary selection (screening) test. Cos-7 cells were cotransfected with a plasmid expressing a chimera of the human NURR-1-Gal4 receptor, a plasmid expressing the human RXR receptor (RXRα or RXRγ receptor) and a 5Gal4pGL3-TK-Luc reporter plasmid. The transfctions were carried out using a chemical agent (Jet PEI). The transfected cells were distributed into 384-well plates and left to stand for 21 hours. At time 24 hours the culture medium was changed. The test products were added (final concentration of between 10^''4 and 3×10^-10 M) to the culture medium. After incubation overnight, the lucifeiase expression was measured after addition of SteadyGlo according to the instructions of the manufacturer (Promega). […] The induction levels (Emax) were calculated relative to the basal activity of each heterodimer.

In a further assay the target is T2, NURR-1/RXRα (Homo sapiens, UniProt P19793).
T2 construct: expressed in transfected cells; host or cells: Cos-7 cells
T2 sequence (P19793 whole entry): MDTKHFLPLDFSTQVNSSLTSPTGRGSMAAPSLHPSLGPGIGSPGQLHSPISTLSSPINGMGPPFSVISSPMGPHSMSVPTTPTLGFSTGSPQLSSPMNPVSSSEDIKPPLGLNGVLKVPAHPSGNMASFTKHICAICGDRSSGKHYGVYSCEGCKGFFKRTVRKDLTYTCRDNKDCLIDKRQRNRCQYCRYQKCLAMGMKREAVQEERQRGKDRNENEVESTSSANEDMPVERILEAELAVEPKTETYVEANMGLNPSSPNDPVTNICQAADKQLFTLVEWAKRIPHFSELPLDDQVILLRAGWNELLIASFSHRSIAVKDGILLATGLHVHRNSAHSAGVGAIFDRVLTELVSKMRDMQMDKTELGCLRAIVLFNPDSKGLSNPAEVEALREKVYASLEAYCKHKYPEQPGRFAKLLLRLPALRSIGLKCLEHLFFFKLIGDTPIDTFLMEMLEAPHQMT
T2 sequence (P43354 whole entry partner): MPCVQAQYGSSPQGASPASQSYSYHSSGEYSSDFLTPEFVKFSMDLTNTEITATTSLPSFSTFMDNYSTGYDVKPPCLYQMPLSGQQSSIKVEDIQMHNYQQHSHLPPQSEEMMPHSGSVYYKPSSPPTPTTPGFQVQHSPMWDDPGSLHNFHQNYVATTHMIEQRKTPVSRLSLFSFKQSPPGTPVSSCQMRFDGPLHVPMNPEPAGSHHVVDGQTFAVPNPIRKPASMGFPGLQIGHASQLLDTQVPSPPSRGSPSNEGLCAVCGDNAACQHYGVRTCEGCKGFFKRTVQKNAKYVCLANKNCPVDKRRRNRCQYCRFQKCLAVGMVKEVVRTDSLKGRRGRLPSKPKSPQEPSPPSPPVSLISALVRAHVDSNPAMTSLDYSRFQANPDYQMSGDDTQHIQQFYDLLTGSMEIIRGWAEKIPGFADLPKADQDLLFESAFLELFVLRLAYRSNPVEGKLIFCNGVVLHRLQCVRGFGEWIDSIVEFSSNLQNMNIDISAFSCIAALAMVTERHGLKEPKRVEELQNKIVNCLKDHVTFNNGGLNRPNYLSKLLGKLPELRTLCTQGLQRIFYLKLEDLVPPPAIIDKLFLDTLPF
T2 sequence (P04386 1-147 partner limits assumed): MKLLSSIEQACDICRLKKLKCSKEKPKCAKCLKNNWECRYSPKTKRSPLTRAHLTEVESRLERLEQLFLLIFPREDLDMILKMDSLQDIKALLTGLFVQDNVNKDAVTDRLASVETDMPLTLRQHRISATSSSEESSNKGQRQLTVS
Put plainly: Transactivation test, NURR-1-Gal4/RXRα, luciferase reporter in Cos-7 cells. Type of assay: cell-based. To be noted: for Emax: COS-7, induction level relative to reference XCT0135908 at 2×10^−5 M (=100%), read-out: hNurr1_RXRaFL Emax (%); for EC50: Cos-7 cells, NURR-1-Gal4/RXRα, luciferase reporter, read-out: hNurr1_RXRaFL EC50. Here is the method:
as §1

[1] abbreviates: induction level relative to reference XCT0135908 at 2×10^−5 M (=100%).

A value given as a limit tells only on which side of the number the result lay.

T1 sequence (P48443 whole entry): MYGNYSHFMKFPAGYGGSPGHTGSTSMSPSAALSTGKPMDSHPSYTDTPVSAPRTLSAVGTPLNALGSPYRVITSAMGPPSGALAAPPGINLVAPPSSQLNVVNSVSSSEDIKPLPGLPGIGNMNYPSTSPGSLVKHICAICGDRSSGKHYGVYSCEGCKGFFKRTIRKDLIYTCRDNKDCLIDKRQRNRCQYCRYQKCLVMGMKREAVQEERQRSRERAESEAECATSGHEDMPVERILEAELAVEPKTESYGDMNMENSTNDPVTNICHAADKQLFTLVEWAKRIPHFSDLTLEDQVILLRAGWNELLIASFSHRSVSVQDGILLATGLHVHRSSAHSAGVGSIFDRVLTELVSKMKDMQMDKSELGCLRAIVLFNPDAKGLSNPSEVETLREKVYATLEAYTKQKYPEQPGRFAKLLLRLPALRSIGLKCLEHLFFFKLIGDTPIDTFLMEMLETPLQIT
T1 sequence (P43354 whole entry partner): as the sequence (P43354 whole entry partner) above
T1 sequence (P04386 1-147 partner limits assumed): as the sequence (P04386 1-147 partner limits assumed) above

What is called Emax is the greatest response seen or fitted, relative to the assay's reference. What is called EC50 is the concentration that produces a half-maximal response. Turning to `Cc1cc(N2CC(C(=O)O)C2)cc(-n2cc(C)c3cc(C(F)(F)F)ccc32)c1` [Example 49, 1-[3-methyl-5-[3-methyl-5-(trifluoromethyl)indol-1-yl]phenyl]azetidine-3-carboxylic acid], at NURR-1/RXRγ, the Emax is 114% and the concentration giving a half-maximal response (EC50) came to 1 nM. At NURR-1/RXRα, the maximal effect (Emax) was determined as 99% and the EC50 is 1 nM.

As to `COc1cc(N2CC(C(=O)O)C2)cc(-n2cc(C)c3cc(C(F)(F)F)ccc32)c1` [Example 51, 1-[3-methoxy-5-[3-methyl-5-(trifluoromethyl)indol-1-yl]phenyl]azetidine-3-carboxylic acid], on NURR-1/RXRγ, the Emax was 106% and the concentration for a half-maximal effect (EC50) was determined as 29 nM. Also, on NURR-1/RXRα, the Emax was 91% and the concentration for a half-maximal effect (EC50) worked out at 17 nM.

As for `Cc1cn(-c2cc(OC(F)(F)F)cc(N3CC(C(=O)O)C3)c2)c2ccc(C(F)(F)F)cc12` [Example 52, 1-[3-[3-methyl-5-(trifluoromethyl)indol-1-yl]-5-(trifluoromethoxy)phenyl]azetidine-3-carboxylic acid], on NURR-1/RXRγ, the maximal response (Emax) came out at 117% and the 50% effective concentration (EC50) worked out at 117 nM. Besides, on NURR-1/RXRα, the Emax was determined as 86% and the EC50 came to 83 nM.

With `Cc1cn(-c2cc(C(C)C)cc(N3CC(C(=O)O)C3)c2)c2ccc(C(F)(F)F)cc12` [Example 53, 1-[3-isopropyl-5-[3-methyl-5-(trifluoromethyl)indol-1-yl]phenyl]azetidine-3-carboxylic acid], on NURR-1/RXRγ, the Emax was found to be 76% and the concentration for a half-maximal effect (EC50) came to 212 nM. On NURR-1/RXRα, the maximal response (Emax) is 83% and the EC50 was 141 nM.

`Cc1cn(-c2cc(OC(C)C)cc(N3CC(C(=O)O)C3)c2)c2ccc(C(F)(F)F)cc12` [Example 54, 1-[3-isopropoxy-5-[3-methyl-5-(trifloruomethyl)indol-1-yl]phenyl]azetidine-3-carboxylic acid]: at NURR-1/RXRγ, the maximum response (Emax) came out at 100% and the EC50 was found to be 2240 nM. Further, at NURR-1/RXRα, the Emax stood at 76% and the EC50 is 1400 nM.

As to `Cc1cc(N2CC(C)(C(=O)O)C2)cc(-n2cc(C)c3cc(C(F)(F)F)ccc32)c1` [Example 55, 3-methyl-1-[3-methyl-5-[3-methyl-5-(trifluoromethyl)indol-1-yl]phenyl]azetidine-3-carboxylic acid], on NURR-1/RXRγ, the maximal effect (Emax) stood at 73% and the EC50 came out at 218 nM. Besides, on NURR-1/RXRα, the maximal response (Emax) is 80% and the EC50 was 189 nM.

As to `Cc1cn(-c2cc(N3CC(C(=O)O)C3)cc(C(C)(C)C)c2)c2ccc(C(F)(F)F)cc12` [Example 56, 1-[3-tert-butyl-5-[3-methyl-5-(trifluoromethyl)indol-1-yl]phenyl]azetidine-3-carboxylic acid], at NURR-1/RXRγ, the Emax is 38% and the concentration for a half-maximal effect (EC50) is 1080 nM. Further, on NURR-1/RXRα, the maximal effect (Emax) was determined as 46% and the EC50 is greater than 5000 nM.

For `Cc1cc(N2CC(C(=O)O)C2)cc(-n2cc(Cl)c3cc(C(F)(F)F)ccc32)c1` [Example 57, 1-[3-[3-chloro-5-(triflurooemthyl)indol-1-yl]-5-methylphenyl]azetidine-3-carboxylic acid], the concentration giving a half-maximal response (EC50) on NURR-1/RXRγ amounted to 2 nM; at NURR-1/RXRα, 1 nM. Moreover, on NURR-1/RXRγ (setting [1]), the “hNurr1_RXRgFL Emax (%)” value is listed as 114%. Besides, the “hNurr1_RXRaFL Emax (%)” value at NURR-1/RXRα (setting [1]) was found to be 126%.

As to `Cc1cn(S(=O)(=O)c2cccc(N3CC(C(=O)O)C3)c2)c2ccc(C(F)(F)F)cc12` [Example 59, 1-[3-[3-methyl-5-(trifluoromethyl)indol-1-yl]sulfonylphenyl]azetidine-3-carboxylic acid], on NURR-1/RXRγ, the maximum response (Emax) was determined as 39% and the EC50 was 3580 nM. Moreover, at NURR-1/RXRα, the Emax stood at 68% and the 50% effective concentration (EC50) was 1380 nM.

As to `Cc1cc(N2CC(C(=O)O)C2)cc(S(=O)(=O)n2cc(C)c3cc(C(F)(F)F)ccc32)c1` [Example 60, 1-[3-methyl-5-[3-methyl-5-(trifluoromethyl)indol-1-yl]sulfonylphenyl]azetidine-3-carboxylic acid], at NURR-1/RXRγ, the Emax is 24% and the EC50 amounted to 1700 nM. Also, at NURR-1/RXRα, the Emax was found to be 40% and the EC50 was found to be 898 nM.

For the compound `CN1CC(C)(C)Oc2cc(C(F)(F)F)cc(-c3cccc(N4CC(C(=O)O)C4)c3)c21` [Example 63, 1-[3-[2,2,4-trimethyl-7-(trifluoromethyl)-3H-1,4-benzoxazine-5-yl]phenyl]azetidine-3-carboylic acid], on NURR-1/RXRγ, the Emax came out at 82% and the EC50 stood at 5 nM. In addition, on NURR-1/RXRα, the Emax turned out to be 86% and the EC50 was 2 nM.

Take `CCCC1CNc2c(cc(C(F)(F)F)cc2-c2cccc(N3CC(C(=O)O)C3)c2)O1` (centres unmarked) [Example 67, 1-[3-[2-propyl-7-(trifluoromethyl)-3,4-dihydro-2H-1,4-benzoxazin-5-yl]phenyl]azetidine-3-carboxylic acid]: at NURR-1/RXRγ, the maximal effect (Emax) turned out to be 82% and the EC50 is 28 nM. At NURR-1/RXRα, the Emax is 67% and the EC50 stood at 25 nM.

On to `CCCNc1ccc(C(C)C)cc1-c1cccc(N2CC(C(=O)O)C2)c1` [Example 68, 1-[3-[5-isopropyl-2-(propylamino)phenyl]phenyl]azetidine-3-carboxylic acid], for which, at NURR-1/RXRγ, the Emax came to 143% and the half-maximal effective concentration (EC50) was 12 nM. For the same compound, on NURR-1/RXRα, the Emax is 127% and the EC50 is 9 nM.

`CC(C)c1cc2c(c(-c3cccc(N4CC(C(=O)O)C4)c3)c1)CCC(C)(C)O2` [Example 70, 1-[3-(7-isopropyl-2,2-dimethylchroman-5-yl)phenyl]azetidine-3-carboxylic acid]: the Emax on NURR-1/RXRγ is 120%; at NURR-1/RXRα it was 104%. The figures for the 50% effective concentration (EC50) on NURR-1/RXRγ and on NURR-1/RXRα were 12 nM and 9 nM, respectively.

For `O=C(O)C1CN(c2cccc(-c3cc(C(F)(F)F)cc(Cl)n3)c2)C1` [Example 74, 1-[3-[6-chloro-4-(trifluoromethyl)2-pyridyl]phenyl]azetidine-3-carboxylic acid], at NURR-1/RXRγ, the maximal effect (Emax) was determined as 86% and the EC50 was determined as 223 nM. On NURR-1/RXRα, the Emax is 121% and the concentration giving a half-maximal response (EC50) was 185 nM.

`CC(C)(C)c1cc(F)cc(-c2cccc(N3CC(C(=O)O)C3)c2)c1` [Example 75, 1-[3-(3-tert-butyl-5-fluorophenyl)phenyl]azetidine-3-carboxylic acid]: on NURR-1/RXRγ, the Emax was determined as 85% and the 50% effective concentration (EC50) was 40 nM. In addition, on NURR-1/RXRα, the maximal effect (Emax) came out at 106% and the half-maximal effective concentration (EC50) worked out at 57 nM.

On to `O=C(O)C1CN(c2cccc(-c3ccc(Cl)c(C(F)(F)F)n3)c2)C1` [Example 76, 1-[3-[5-chloro-6-(trifluromethyl)-2-pyridyl]phenyl]azetidine-3-carboxylic acid], for which, at NURR-1/RXRγ, the maximal response (Emax) turned out to be 51% and the EC50 is 2560 nM. Further, at NURR-1/RXRα, the maximal effect (Emax) came out at 71% and the EC50 was 741 nM.

Consider `O=C(O)C1CN(c2cccc(-c3cnc(Cl)c(C(F)(F)F)c3)c2)C1` [Example 77, 1-[3-[6-chloro-5-(trifluoromethyl)-3-pyridyl]phenyl]azetidine-3-carboxylic acid], for which the maximal response (Emax) is 105% on NURR-1/RXRγ and 67% at NURR-1/RXRα. Further, the 50% effective concentration (EC50) at NURR-1/RXRγ came to 1200 nM; at NURR-1/RXRα it was 423 nM.

In the case of `O=C(O)C1CN(c2cccc(-c3cc(Cl)nc(C(F)(F)F)c3)c2)C1` [Example 78], on NURR-1/RXRγ, the maximal effect (Emax) worked out at 98% and the concentration for a half-maximal effect (EC50) turned out to be 339 nM. On NURR-1/RXRα, the maximal response (Emax) was determined as 93% and the EC50 stood at 207 nM.

On to `CN(C)c1nc(-c2cccc(N3CC(C(=O)O)C3)c2)cc(C(F)(F)F)n1` [Example 79, 1-[3-[2-(dimethylamino)-6-(trifluoromethyl)pyrimidin-4-yl]phenyl]azetidine-3-carboxylic acid], for which the Emax on NURR-1/RXRγ came to 88%; at NURR-1/RXRα it was 115%. For the same compound, the figures for the EC50 at NURR-1/RXRγ and on NURR-1/RXRα were 543 nM and 177 nM, respectively.

On to `CN(C)c1cc(C(F)(F)F)cc(-c2cccc(N3CC(C(=O)O)C3)c2)n1` [Example 80, 1-[3-[6-(dimethylamino)-4-(trifluoromethyl)2-pyridyl]phenyl]azetidine-3-carboxylic acid], for which, on NURR-1/RXRγ, the maximal effect (Emax) was found to be 89% and the EC50 is 335 nM. In addition, at NURR-1/RXRα, the maximal response (Emax) amounted to 104% and the EC50 came out at 316 nM.

As to `CC(C)(C)c1cc(-c2cccc(N3CC(C(=O)O)C3)c2)nc(C(C)(C)C)n1` [Example 81, 1-[3-(2,6-di-tert-butylpyrimidin-4-yl)phenyl]azetidine-3-carboxylic acid], on NURR-1/RXRγ, the Emax was 107% and the EC50 was found to be 112 nM. At NURR-1/RXRα, the Emax came out at 108% and the concentration giving a half-maximal response (EC50) was found to be 50 nM.

In the case of `O=C(O)C1CN(c2cccc(-c3cc(OC(F)(F)F)cc4cccnc34)c2)C1` [Example 83, 1-[3-[6-(trifluoromethoxy)-8-quinolyl]phenyl]azetidine-3-carboxylic acid], the maximal effect (Emax) worked out at 68% at NURR-1/RXRγ and 67% on NURR-1/RXRα. The values for the EC50 at NURR-1/RXRγ and at NURR-1/RXRα were 596 nM and 282 nM, respectively.
